Measurements: ChEMBL document CHEMBL1136273, “Design and synthesis of factor Xa inhibitors and their prodrugs” (Bioorg Med Chem Lett, 2003)

Tested on: not listed separately
Experiment: Cmax in rats
Assay type: ADME, organism-based
Settings: rat, in vivo
A Cmax of 168 ng/mL was found for `C/C(=C(\F)C(=O)Nc1ccc(-c2ccccc2S(N)(=O)=O)cc1Br)c1cccc(C(=N)N)c1` in this work.
A Cmax of 630 ng/mL was found for `C/C(=C(\F)C(=O)Nc1ccc(-c2ccccc2S(N)(=O)=O)cc1Br)c1cccc(C(=N)NO)c1` in this work.

Target: Prothrombin (Homo sapiens, UniProt P00734)
Experiment: Inhibitory concentration required against Thrombin
Settings: not given
An IC50 of 10700 nM was found for `C/C(=C1\CC(=O)N(c2ccc(C(=O)N3CCCC3)cc2)C1=O)c1cccc(C(=N)N)c1` in this work.
An IC50 of 1600 nM was found for `C/C(=C(\CC(N)=O)C(=O)Nc1ccc(-c2ccccc2S(N)(=O)=O)cc1)c1cccc(C(=N)N)c1` in this work.
An IC50 of 670 nM was found for `C/C(=C1\CC(=O)N(c2ccc(-c3ccccc3S(N)(=O)=O)cc2)C1=O)c1cccc(C(=N)N)c1` in this work.
An IC50 of 76 nM was found for `C/C(=C1\CC(=O)N(c2ccc(C(C)(C)C)cc2)C1=O)c1cccc(C(=N)N)c1` in this work.

Tested on: not listed separately
Experiment: Oral bioavailability in dog
Assay type: ADME, organism-based, Canis lupus familiaris
Settings: in vivo
In the case of `N=C(N)c1cccc(/C(=C(/F)C(=O)Nc2ccc(-c3ccccc3S(N)(=O)=O)cc2)n2cccn2)c1`, the bioavailability is reported as < 5%.
A bioavailability of 25% was found for `N=C(NO)c1cccc(/C(=C(/F)C(=O)Nc2ccc(-c3ccccc3S(N)(=O)=O)cc2)n2cccn2)c1` in this work.

Target: Coagulation factor X (Homo sapiens, UniProt P00742)
Sequence (P00742 41-179 limits assumed): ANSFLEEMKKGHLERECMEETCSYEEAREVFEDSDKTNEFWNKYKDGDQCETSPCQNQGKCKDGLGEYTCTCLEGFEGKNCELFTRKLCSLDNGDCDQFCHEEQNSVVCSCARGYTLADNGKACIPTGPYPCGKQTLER
Sequence (P00742 235-488 limits assumed): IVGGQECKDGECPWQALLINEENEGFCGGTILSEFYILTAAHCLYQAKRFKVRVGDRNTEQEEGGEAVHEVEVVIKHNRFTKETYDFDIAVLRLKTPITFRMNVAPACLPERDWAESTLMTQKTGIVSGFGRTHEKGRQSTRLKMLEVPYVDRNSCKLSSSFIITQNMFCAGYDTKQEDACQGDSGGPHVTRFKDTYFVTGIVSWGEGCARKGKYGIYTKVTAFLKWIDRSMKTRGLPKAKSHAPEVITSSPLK
Experiment: Inhibitory concentration to coagulation factor X
Settings: not given
An IC50 of 750 nM was found for `C/C(=C(\F)C(=O)Nc1ccc(-c2ccccc2S(N)(=O)=O)cc1)c1cccc(C(=N)NNc2ccccc2)c1` in this work.
An IC50 of 28 nM was found for `CNNC(=N)c1cccc(/C(C)=C(/F)C(=O)Nc2ccc(-c3ccccc3S(N)(=O)=O)cc2)c1` in this work.
An IC50 of 5910 nM was found for `C/C(=C(\F)C(=O)Nc1ccc(-c2ccccc2S(N)(=O)=O)cc1)c1ccc2[nH]nc(N)c2c1` in this work.
An IC50 of 48 nM was found for `CNNC(=N)c1cccc(/C(C)=C2/CC(=O)N(c3ccc(-c4ccccc4S(N)(=O)=O)cc3)C2=O)c1` in this work.
An IC50 of 1590 nM was found for `C/C(=C(\F)C(=O)Nc1ccc(-c2ccccc2S(N)(=O)=O)cc1F)c1cccc(C(=N)NO)c1` in this work.
An IC50 of 420 nM was found for `C/C(=C(\F)C(=O)Nc1ccc(-c2ccccc2S(N)(=O)=O)cc1)c1cccc(C(=N)NNCC(F)(F)F)c1` in this work.
An IC50 of 41 nM was found for `C/C(=C(\F)C(=O)Nc1ccc(-c2ccccc2S(N)(=O)=O)cc1Cl)c1cccc(C(=N)NN)c1` in this work.
An IC50 of 890 nM was found for `C/C(=C(\F)C(=O)Nc1ccc(-c2ccccc2S(N)(=O)=O)cc1)c1cccc(C(=N)N2CCC2)c1` in this work.
An IC50 of 110 nM was found for `C/C(=C(\F)C(=O)Nc1ccc(-c2ccccc2S(N)(=O)=O)cc1F)c1cccc(C(=N)NN)c1` in this work.
An IC50 of 710 nM was found for `C/C(=C1\CC(=O)N(c2ccc(-c3ccccc3S(N)(=O)=O)cc2)C1=O)c1cccc(C(=N)NO)c1` in this work.
An IC50 of 1 nM was found for `N=C(N)c1cccc(/C(=C(/F)C(=O)Nc2ccc(-c3ccccc3S(N)(=O)=O)cc2)n2cccn2)c1` in this work.
An IC50 of 750 nM was found for `C/C(=C(\F)C(=O)Nc1ccc(-c2ccccc2S(N)(=O)=O)cc1Cl)c1cccc(C(=N)NO)c1` in this work.
An IC50 of 57 nM was found for `C/C(=C(\F)C(=O)Nc1ccc(-c2ccccc2S(N)(=O)=O)cc1Br)c1cccc(C(=N)NN)c1` in this work.
An IC50 of 180 nM was found for `C/C(=C1\CC(=O)N(c2ccc(C(=O)N3CCCC3)cc2)C1=O)c1cccc(C(=N)N)c1` in this work.
An IC50 of 440 nM was found for `C/C(=C(\F)C(=O)Nc1ccc(-c2ccccc2S(N)(=O)=O)cc1)c1cccc(C(=N)NO)c1` in this work.
An IC50 of 890 nM was found for `C/N=C(\N)c1cccc(/C(C)=C(/F)C(=O)Nc2ccc(-c3ccccc3S(N)(=O)=O)cc2)c1` in this work.
An IC50 of 490 nM was found for `C/C(=C(\F)C(=O)Nc1ccc(-c2ccccc2S(N)(=O)=O)cc1)c1cccc(C(=N)NN(C)C)c1` in this work.
An IC50 of 120 nM was found for `CC(c1cccc(C(=N)N)c1)C1CC(=O)N(c2ccc(-c3ccccc3S(N)(=O)=O)cc2)C1=O` (stereo unspecified) in this work.
An IC50 of 29 nM was found for `C/C(=C1\CC(=O)N(c2ccc(C(C)(C)C)cc2)C1=O)c1cccc(C(=N)N)c1` in this work.
An IC50 of 3790 nM was found for `N=C(NO)c1cccc(/C(=C(/F)C(=O)Nc2ccc(-c3ccccc3S(N)(=O)=O)cc2)n2cccn2)c1` in this work.
An IC50 of 78 nM was found for `C/C(=C1\CC(=O)N(c2ccc(-c3ccccc3S(N)(=O)=O)cc2)C1=O)c1cccc(C(=N)NN)c1` in this work.
An IC50 of 253 nM was found for `C/C(=C(\F)C(=O)Nc1ccc(-c2ccccc2S(N)(=O)=O)cc1)c1cccc(C(=N)NC#N)c1` in this work.
An IC50 of 1180 nM was found for `C/C(=C(\F)C(=O)Nc1ccc(-c2ccccc2S(N)(=O)=O)cc1Br)c1cccc(C(=N)NO)c1` in this work.
